In patent US10813880B2, “Isotretinoin oral-mucosal formulations and methods for using same” (Skyline Biosciences LLC, priority 2017, dated 2020):

Legend:
[1] = tested on: Human gingival keratinocytes; assay: Cytotoxicity in 2D cultured oral epithelial cells (Cell Titer96 Aqueous One); assay type: cell-based; settings: seven concentrations 0.3 to 0.00003%, 24 h
Procedure: Human gingival keratinocytes derived from a single donor were cultured at 37° C. with 5% CO2, and 95% humidity in a 96-well plate for cytotoxicity evaluation. Cells were incubated in the presence of seven concentrations of isotretinoin ranging from 0.3 to 0.00003% for 24 h in triplicate. Untreated cells were used as baseline control. Cytotoxicity was evaluated using the Cell Titer96 Aqueous One (Promega, WI, USA) basic test according to manufacturer's instructions using an absorbance of 490 nm for the final colorimetric readings.

[2] = tested on: Human oral mucosa 3D models (composed of human gingival keratinocytes); assay: Irritation testing in 3D cultured oral epithelial cells (MTT); assay type: cell-based; settings: 4 hr
Procedure: Human oral mucosa 3D models (composed of human gingival keratinocytes) were exposed topically to CCP-042 oral adhesive film (0.1%, 0.2%, and 0.3%) for 4 hr before viability assessment. Cell viability was measured by MTT assay on tissues, in triplicate. 1% Triton X-100 was used as positive control. The reduction of the viability of tissues exposed to formulations as compared to that of PBS-treated negative controls were used to predict the skin irritation potential using European Union (EU) and Globally Harmonized System (GHS) classifications, which define an irritant as a substance that reduces the viability of the exposed tissue to less than 50% of the viability of untreated controls.

## CC1=C(/C=C/C(C)=C/C=C/C(C)=C\C(=O)O)C(C)(C)CCC1 [isotretinoin, (2Z,4E,6E,8E)-3,7-dimethyl-9-(2,6,6-trimethylcyclohex-1-en-1-yl)nona-2,4,6,8-tetraenoic acid]
[1]
  cytotoxicity (inhibition of viability of more than 20% of control): toxic
[2]; concentration 0.1%
  toxicity to 3D tissue: not toxic
[2]; concentration 0.2%
  toxicity to 3D tissue: not toxic
